How the values were obtained:
Test in all cases: pull-down with CCG-1423 Sepharose, immunoblot
Assay type in all cases: binding
[1] = target: T1, MRTF-B (MAL16/MKL2), Flag-MRTF-B (Mus musculus, UniProt P59759); settings: immobilised CCG-1423 (photo-crosslinked to Sepharose); pH 7.5, 4°C, 2 h
T1 construct: gene Mrtfb; N-terminal Flag tag, pCS2+; in vitro translated in wheat germ extract, anti-Flag purified
T1 sequence (P59759 1-1080): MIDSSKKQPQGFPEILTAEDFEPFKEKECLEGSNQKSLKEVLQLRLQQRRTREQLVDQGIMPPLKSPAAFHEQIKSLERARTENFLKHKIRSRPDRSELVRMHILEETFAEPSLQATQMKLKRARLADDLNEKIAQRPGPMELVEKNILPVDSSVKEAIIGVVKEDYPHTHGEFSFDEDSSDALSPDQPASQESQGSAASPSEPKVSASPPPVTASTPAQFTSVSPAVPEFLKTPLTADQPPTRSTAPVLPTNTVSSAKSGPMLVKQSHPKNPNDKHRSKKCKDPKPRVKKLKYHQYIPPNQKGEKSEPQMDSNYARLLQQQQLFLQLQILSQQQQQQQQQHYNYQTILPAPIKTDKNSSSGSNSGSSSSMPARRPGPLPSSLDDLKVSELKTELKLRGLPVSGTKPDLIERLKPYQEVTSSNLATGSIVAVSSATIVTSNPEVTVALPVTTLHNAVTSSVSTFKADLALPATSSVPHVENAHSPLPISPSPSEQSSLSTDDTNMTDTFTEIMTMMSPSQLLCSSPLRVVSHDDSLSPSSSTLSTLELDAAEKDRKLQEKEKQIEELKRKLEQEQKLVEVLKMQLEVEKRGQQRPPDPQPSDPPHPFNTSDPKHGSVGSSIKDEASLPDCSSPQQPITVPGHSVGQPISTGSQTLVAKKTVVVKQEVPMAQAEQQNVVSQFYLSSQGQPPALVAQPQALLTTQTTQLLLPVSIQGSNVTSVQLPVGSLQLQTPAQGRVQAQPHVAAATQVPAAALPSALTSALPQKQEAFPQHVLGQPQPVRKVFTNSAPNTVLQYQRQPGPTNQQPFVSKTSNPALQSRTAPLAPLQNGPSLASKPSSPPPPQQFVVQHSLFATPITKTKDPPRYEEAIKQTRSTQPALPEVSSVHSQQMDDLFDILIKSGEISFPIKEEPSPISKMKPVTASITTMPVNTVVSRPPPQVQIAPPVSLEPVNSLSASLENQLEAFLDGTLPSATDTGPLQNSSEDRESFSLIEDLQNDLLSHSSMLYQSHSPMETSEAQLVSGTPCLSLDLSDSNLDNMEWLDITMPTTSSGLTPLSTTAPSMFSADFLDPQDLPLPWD

[2] = target: T2, MRTF-A (MAL/MKL1), Flag-MRTF-A (Mus musculus, UniProt Q8K4J6); settings: immobilised CCG-1423 (photo-crosslinked to Sepharose); pH 7.5, 4°C, 2 h
T2 construct: gene Mrtfa; N-terminal Flag tag, pCS2+; in vitro translated in wheat germ extract, anti-Flag purified
T2 sequence (Q8K4J6 1-964): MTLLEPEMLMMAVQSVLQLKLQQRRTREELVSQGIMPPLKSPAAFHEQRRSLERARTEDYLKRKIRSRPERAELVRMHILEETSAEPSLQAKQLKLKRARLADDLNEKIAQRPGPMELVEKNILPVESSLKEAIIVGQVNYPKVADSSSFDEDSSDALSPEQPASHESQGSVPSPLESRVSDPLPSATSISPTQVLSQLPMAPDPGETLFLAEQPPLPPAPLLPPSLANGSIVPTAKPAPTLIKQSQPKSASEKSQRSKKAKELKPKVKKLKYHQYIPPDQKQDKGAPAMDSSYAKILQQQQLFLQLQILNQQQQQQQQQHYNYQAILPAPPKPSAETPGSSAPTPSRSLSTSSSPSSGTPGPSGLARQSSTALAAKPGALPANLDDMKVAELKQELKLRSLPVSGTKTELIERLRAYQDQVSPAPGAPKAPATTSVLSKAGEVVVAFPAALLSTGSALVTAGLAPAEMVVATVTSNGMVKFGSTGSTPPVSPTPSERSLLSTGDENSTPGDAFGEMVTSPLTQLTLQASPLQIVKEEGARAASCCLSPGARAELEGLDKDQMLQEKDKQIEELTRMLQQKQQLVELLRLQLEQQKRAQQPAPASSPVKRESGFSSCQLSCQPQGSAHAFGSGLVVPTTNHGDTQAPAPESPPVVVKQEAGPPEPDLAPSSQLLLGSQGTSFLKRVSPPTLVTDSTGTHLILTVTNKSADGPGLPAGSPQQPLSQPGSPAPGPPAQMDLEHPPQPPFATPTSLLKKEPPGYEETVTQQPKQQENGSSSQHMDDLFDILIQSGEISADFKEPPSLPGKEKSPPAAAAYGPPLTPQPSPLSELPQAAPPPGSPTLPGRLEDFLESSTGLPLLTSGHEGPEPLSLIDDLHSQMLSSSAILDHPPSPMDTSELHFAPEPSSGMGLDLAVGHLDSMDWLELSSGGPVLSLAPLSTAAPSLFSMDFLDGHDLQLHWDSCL

[3] = target: T3, Phactr1, Flag-Phactr1 (Rattus norvegicus, UniProt P62024); settings: immobilised CCG-1423 (photo-crosslinked to Sepharose); pH 7.5, 4°C, 2 h
T3 construct: N-terminal Flag tag, pCS2+; in vitro translated in wheat germ extract, anti-Flag purified
T3 sequence (P62024 1-580): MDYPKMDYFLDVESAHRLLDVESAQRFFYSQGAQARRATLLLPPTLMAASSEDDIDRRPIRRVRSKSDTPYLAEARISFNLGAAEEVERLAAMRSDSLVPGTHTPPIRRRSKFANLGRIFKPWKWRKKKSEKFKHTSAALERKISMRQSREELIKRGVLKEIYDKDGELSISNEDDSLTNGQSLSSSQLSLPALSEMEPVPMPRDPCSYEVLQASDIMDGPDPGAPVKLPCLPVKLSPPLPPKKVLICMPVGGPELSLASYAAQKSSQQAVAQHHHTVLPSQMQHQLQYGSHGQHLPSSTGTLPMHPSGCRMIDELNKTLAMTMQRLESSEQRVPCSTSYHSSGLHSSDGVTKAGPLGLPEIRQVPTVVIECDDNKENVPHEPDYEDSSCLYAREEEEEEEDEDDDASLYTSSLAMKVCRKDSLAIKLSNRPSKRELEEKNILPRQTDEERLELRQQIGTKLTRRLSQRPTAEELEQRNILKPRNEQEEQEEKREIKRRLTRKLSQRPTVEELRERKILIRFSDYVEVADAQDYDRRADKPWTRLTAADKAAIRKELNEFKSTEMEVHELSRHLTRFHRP

[4] = target: T2, MRTF-A (MAL/MKL1), Flag-MRTF-A; settings: immobilised CCG-1423 (photo-crosslinked to Sepharose) competed by 10 µM free CCG-1423; no G-actin; pH 7.5, 4°C, 2 h; site: N-terminal basic domain (NB)
[5] = target: T4, Mycd (myocardin), Flag-Mycd (Mus musculus, UniProt Q8VIM5); settings: immobilised CCG-1423 (photo-crosslinked to Sepharose); pH 7.5, 4°C, 2 h
T4 construct: gene Myocd; N-terminal Flag tag, pCS2+; in vitro translated in wheat germ extract, anti-Flag purified
T4 sequence (Q8VIM5 1-935): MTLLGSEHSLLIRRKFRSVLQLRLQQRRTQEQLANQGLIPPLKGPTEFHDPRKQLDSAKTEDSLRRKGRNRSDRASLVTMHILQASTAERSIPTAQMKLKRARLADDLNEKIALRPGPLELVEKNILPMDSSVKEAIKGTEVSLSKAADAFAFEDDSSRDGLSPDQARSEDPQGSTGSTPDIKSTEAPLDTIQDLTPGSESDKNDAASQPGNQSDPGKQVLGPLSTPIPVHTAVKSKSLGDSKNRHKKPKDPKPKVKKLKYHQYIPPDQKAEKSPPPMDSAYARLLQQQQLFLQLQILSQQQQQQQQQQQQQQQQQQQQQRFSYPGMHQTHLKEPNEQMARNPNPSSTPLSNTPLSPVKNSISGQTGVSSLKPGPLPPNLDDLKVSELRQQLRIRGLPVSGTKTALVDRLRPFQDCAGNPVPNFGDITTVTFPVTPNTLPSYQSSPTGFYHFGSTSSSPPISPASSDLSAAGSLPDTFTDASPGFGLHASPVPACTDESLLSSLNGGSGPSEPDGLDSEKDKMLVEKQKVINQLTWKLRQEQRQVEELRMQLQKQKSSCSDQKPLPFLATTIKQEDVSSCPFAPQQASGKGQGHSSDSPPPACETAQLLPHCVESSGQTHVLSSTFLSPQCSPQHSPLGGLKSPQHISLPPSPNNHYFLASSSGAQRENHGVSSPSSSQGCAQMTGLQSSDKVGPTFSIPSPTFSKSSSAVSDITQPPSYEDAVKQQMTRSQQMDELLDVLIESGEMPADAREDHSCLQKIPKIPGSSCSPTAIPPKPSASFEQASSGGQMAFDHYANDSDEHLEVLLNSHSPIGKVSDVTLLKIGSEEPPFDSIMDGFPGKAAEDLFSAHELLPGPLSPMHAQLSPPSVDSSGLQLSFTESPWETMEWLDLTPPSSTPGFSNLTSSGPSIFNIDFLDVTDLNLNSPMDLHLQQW

[6] = target: T1, MRTF-B (MAL16/MKL2), Flag-MRTF-B; settings: immobilised CCG-1423 (photo-crosslinked to Sepharose); pH 7.5, 4°C, 2 h; remark: listed apart in the source

% of wild-type binding [2]: 11.2±8.5%
% of binding left with 10 μM free CCG-1423 [4]: 20.6±6.3%
SMILES: CC(ONC(=O)c1cc(C(F)(F)F)cc(C(F)(F)F)c1)C(=O)Nc1ccc(Cl)cc1 (stereo not drawn) [CCG-1423]
pull-down with CCG-1423 Sepharose, immunoblot [1]: MRTF-B NBmut) to CCG-1423 Sepharose severely reduced
pull-down with CCG-1423 Sepharose, immunoblot [3]: MRTF-B, Mycd, and Phactr1 bound to CCG-1423 Sepharose
pull-down with CCG-1423 Sepharose, immunoblot [5]: MRTF-B, Mycd, and Phactr1 bound to CCG-1423 Sepharose
pull-down with CCG-1423 Sepharose, immunoblot [6]: MRTF-B, Mycd, and Phactr1 bound to CCG-1423 Sepharose

— paper PMC3928398, “RPEL Proteins Are the Molecular Targets for CCG-1423, an Inhibitor of Rho Signaling” (PLoS ONE, 2014)
